Measured values taken from patent US5326788A, “Biological fluid purification system” (priority 1992, dated 1994).

Experiment: Addition of hypericin to whole blood: standard blood chemistries, complete blood count, coagulation profile
Parameters: species or system human; MCV / MCH / MCHC / Bilirubin (direct): unit not given here
Method: Triplicate samples of blood were drawn from two normal individuals directly into vacuum tubes. Into one set of tubes was added hypericin dissolved in 10% ethanol, 40% propylene glycol, 50% water to a final concentration of hypericin of 0.1 micrograms/ml of blood. A second set of tubes received hypericin at 1.0 micrograms/ml of blood. The final concentration of ethanol was 0.01% and of propylene glycol 0.04% in each sample, respectively. The third set served as an untreated control. Hypericin-treated and untreated samples were taken directly to a clinical laboratory for testing of standard blood chemistries, complete blood count, and a coagulation profile.

For `Cc1cc(O)c2c(=O)c3c(O)cc(O)c4c5c(O)cc(O)c6c(=O)c7c(O)cc(C)c8c1c2c(c34)c(c78)c65` [hypericin], the “effect on blood chemistries and hematologic parameters (summary)” value (1.0 and 0.1 micrograms/ml) was “no significant effect”, the BUN (Subject #1, 0.1 micrograms/ml) was 13 mg/dL and the Bilirubin (Subject #1, 0.1 micrograms/ml) was 0.5 mg/dL. For the same compound, the “Bilirubin (direct)” value (Subject #1, 0.1 micrograms/ml) was 0.1, the CO2 (Subject #1, 0.1 micrograms/ml) was 28 meq/l and the “Ca^+” value (Subject #1, 0.1 micrograms/ml) was 10.1 mg/dL. For the same compound, the “Cl^-” value (Subject #1, 0.1 micrograms/ml) was 106 meq/l, the Creat (Subject #1, 0.1 micrograms/ml) was 0.9 mg/dL and the ESR (Subject #1, 0.1 micrograms/ml) was 5 mm/hr. For the same compound, the Hb (Subject #1, 0.1 micrograms/ml) was 15.8 gm/dl, the Hct (Subject #1, 0.1 micrograms/ml) was 46.7% and the “K^+” value (Subject #1, 0.1 micrograms/ml) was 4.2 meq/l. It also gave an LDH (Subject #1, 0.1 micrograms/ml) of 154 IU/l, an MCH (Subject #1, 0.1 micrograms/ml) of 30.8 and an MCHC (Subject #1, 0.1 micrograms/ml) of 33.8. For the same compound, the MCV (Subject #1, 0.1 micrograms/ml) was 91.0, the “Na^+” value (Subject #1, 0.1 micrograms/ml) was 140 meq/l and the SGOT (Subject #1, 0.1 micrograms/ml) was 19 IU/l. The WBC (Subject #1, 0.1 micrograms/ml) was 8.1 /cu mm, the albumin (Subject #1, 0.1 micrograms/ml) was 4.8 gm/dl and the alk phos (Subject #1, 0.1 micrograms/ml) was 76 IU/l. For the same compound, the cholesterol (Subject #1, 0.1 micrograms/ml) was 255 mg/dL, the glucose (Subject #1, 0.1 micrograms/ml) was 107 mg/dL and the lymphs (Subject #1, 0.1 micrograms/ml) was 34.9%. The monos (Subject #1, 0.1 micrograms/ml) was 4.2%, the neutr (Subject #1, 0.1 micrograms/ml) was 60.9% and the phosphate (Subject #1, 0.1 micrograms/ml) was 3.7 mg/dL. For the same compound, the total protein (Subject #1, 0.1 micrograms/ml) was 7.5 gm/dl, the uric acid (Subject #1, 0.1 micrograms/ml) was 5.7 mg/dL and the BUN (Subject #1, 1.0 micrograms/ml) was 12 mg/dL. The Bilirubin (Subject #1, 1.0 micrograms/ml) was 0.5 mg/dL, the “Bilirubin (direct)” value (Subject #1, 1.0 micrograms/ml) was 0.1 and the CO2 (Subject #1, 1.0 micrograms/ml) was 28 meq/l. For the same compound, the “Ca^+” value (Subject #1, 1.0 micrograms/ml) was 10.2 mg/dL, the “Cl^-” value (Subject #1, 1.0 micrograms/ml) was 106 meq/l and the Creat (Subject #1, 1.0 micrograms/ml) was 0.9 mg/dL. It also gave an ESR (Subject #1, 1.0 micrograms/ml) of 4 mm/hr, a Hb (Subject #1, 1.0 micrograms/ml) of 16.0 gm/dl and a Hct (Subject #1, 1.0 micrograms/ml) of 47.6%. For the same compound, the “K^+” value (Subject #1, 1.0 micrograms/ml) was 4.3 meq/l, the LDH (Subject #1, 1.0 micrograms/ml) was 153 IU/l and the MCH (Subject #1, 1.0 micrograms/ml) was 30.6. The MCHC (Subject #1, 1.0 micrograms/ml) was 33.6, the MCV (Subject #1, 1.0 micrograms/ml) was 91.1 and the “Na^+” value (Subject #1, 1.0 micrograms/ml) was 137 meq/l. The SGOT (Subject #1, 1.0 micrograms/ml) was 15 IU/l, the WBC (Subject #1, 1.0 micrograms/ml) was 8.0 /cu mm and the albumin (Subject #1, 1.0 micrograms/ml) was 4.8 gm/dl. The alk phos (Subject #1, 1.0 micrograms/ml) was 75 IU/l, the cholesterol (Subject #1, 1.0 micrograms/ml) was 258 mg/dL and the glucose (Subject #1, 1.0 micrograms/ml) was 105 mg/dL. The lymphs (Subject #1, 1.0 micrograms/ml) was 32.9%, the monos (Subject #1, 1.0 micrograms/ml) was 5.5% and the neutr (Subject #1, 1.0 micrograms/ml) was 61.6%. For the same compound, the phosphate (Subject #1, 1.0 micrograms/ml) was 3.6 mg/dL, the total protein (Subject #1, 1.0 micrograms/ml) was 7.5 gm/dl and the uric acid (Subject #1, 1.0 micrograms/ml) was 5.6 mg/dL. The BUN (Subject #2, 0.1 micrograms/ml) was 9 mg/dL, the Bilirubin (Subject #2, 0.1 micrograms/ml) was 0.5 mg/dL and the “Bilirubin (direct)” value (Subject #2, 0.1 micrograms/ml) was 0.1. For the same compound, the CO2 (Subject #2, 0.1 micrograms/ml) was 27 meq/l, the “Ca^+” value (Subject #2, 0.1 micrograms/ml) was 9.5 mg/dL and the “Cl^-” value (Subject #2, 0.1 micrograms/ml) was 108 meq/l. The Creat (Subject #2, 0.1 micrograms/ml) was 0.7 mg/dL, the ESR (Subject #2, 0.1 micrograms/ml) was 1 mm/hr and the Hb (Subject #2, 0.1 micrograms/ml) was 13.0 gm/dl. For the same compound, the Hct (Subject #2, 0.1 micrograms/ml) was 37.8%, the “K^+” value (Subject #2, 0.1 micrograms/ml) was 4.4 meq/l and the LDH (Subject #2, 0.1 micrograms/ml) was 110 IU/L. For the same compound, the MCH (Subject #2, 0.1 micrograms/ml) was 31.4, the MCHC (Subject #2, 0.1 micrograms/ml) was 34.4 and the MCV (Subject #2, 0.1 micrograms/ml) was 91.4. The “Na^+” value (Subject #2, 0.1 micrograms/ml) was 140 meq/l, the SGOT (Subject #2, 0.1 micrograms/ml) was 15 IU/L and the WBC (Subject #2, 0.1 micrograms/ml) was 6.7 /cu mm. The albumin (Subject #2, 0.1 micrograms/ml) was 4.5 gm/dl, the alk phos (Subject #2, 0.1 micrograms/ml) was 51 IU/l and the cholestrol (Subject #2, 0.1 micrograms/ml) was 133 mg/dL. The glucose (Subject #2, 0.1 micrograms/ml) was 96 mg/dL, the lymphs (Subject #2, 0.1 micrograms/ml) was 33.1% and the monos (Subject #2, 0.1 micrograms/ml) was 4.9%. The neutr (Subject #2, 0.1 micrograms/ml) was 62.0%, the phosphate (Subject #2, 0.1 micrograms/ml) was 3.0 mg/dL and the total protein (Subject #2, 0.1 micrograms/ml) was 6.4 g/dL. The uric acid (Subject #2, 0.1 micrograms/ml) was 4.2 mg/dL, the BUN (Subject #2, 1.0 micrograms/ml) was 8 mg/dL and the Bilirubin (Subject #2, 1.0 micrograms/ml) was 0.5 mg/dL. For the same compound, the “Bilirubin (direct)” value (Subject #2, 1.0 micrograms/ml) was 0.1, the CO2 (Subject #2, 1.0 micrograms/ml) was 27 meq/l and the “Ca^+” value (Subject #2, 1.0 micrograms/ml) was 9.5 mg/dL. For the same compound, the “Cl^-” value (Subject #2, 1.0 micrograms/ml) was 108 meq/l, the Creat (Subject #2, 1.0 micrograms/ml) was 0.6 mg/dL and the ESR (Subject #2, 1.0 micrograms/ml) was 1 mm/hr. For the same compound, the Hb (Subject #2, 1.0 micrograms/ml) was 12.9 gm/dl, the Hct (Subject #2, 1.0 micrograms/ml) was 37.3% and the “K^+” value (Subject #2, 1.0 micrograms/ml) was 4.5 meq/l. It also gave an LDH (Subject #2, 1.0 micrograms/ml) of 97 IU/L, an MCH (Subject #2, 1.0 micrograms/ml) of 31.6 and an MCHC (Subject #2, 1.0 micrograms/ml) of 34.6. For the same compound, the MCV (Subject #2, 1.0 micrograms/ml) was 91.3, the “Na^+” value (Subject #2, 1.0 micrograms/ml) was 141 meq/l and the SGOT (Subject #2, 1.0 micrograms/ml) was 14 IU/L. The WBC (Subject #2, 1.0 micrograms/ml) was 6.4 /cu mm, the albumin (Subject #2, 1.0 micrograms/ml) was 4.4 gm/dl and the alk phos (Subject #2, 1.0 micrograms/ml) was 52 IU/l. The cholestrol (Subject #2, 1.0 micrograms/ml) was 131 mg/dL, the glucose (Subject #2, 1.0 micrograms/ml) was 95 mg/dL and the lymphs (Subject #2, 1.0 micrograms/ml) was 32.0. It also gave a monos (Subject #2, 1.0 micrograms/ml) of 5.2%, a neutr (Subject #2, 1.0 micrograms/ml) of 62.8% and a phosphate (Subject #2, 1.0 micrograms/ml) of 3.1 mg/dL. The total protein (Subject #2, 1.0 micrograms/ml) was 6.3 g/dL and the uric acid (Subject #2, 1.0 micrograms/ml) was 4.1 mg/dL.
